Assay results reported in patent US20210392882A1, “METHODS AND COMPOSITIONS FOR IMPROVED INSECT REPELLENCY” (Board of Trustees of Michigan State University, priority 2020, published 2021).

Assays:
Ae. aegypti mosquitoes = test: Hand-in-cage spatial repellency assay; format: in vivo, Aedes aegypti; settings: for repellency in AaOr31−/− mosquitoes compared to wild-type mosquitoes: ROCK wild-type; for effect of (E)-β-farnesene on repellency of the compound: EBF 4 ppm, P-I 1000 ppm, P-II 1000 ppm, (−)-borneol 100 ppm; for repellency in pyrethrum/pyrethroid resistant KDR:ROCK mosquitoes compared to ROCK: FIG. 4G
From the text: The hand-in-cage assay employed was similar to the hand-in-glove assay described by Boyle et al. (bioRxiv, 060178 (2016)). The setup for the hand-in-cage assay includes a 30 cm×30 cm×30 cm mosquito cage (BioQuip, Rancho Dominguea, Calif.), with a mounted digital camera and a human hand in a modified glove with a screened window. The digital camera (e-con Systems Inc, San Jose, Calif., model: e-CAM51A) for video recording is mounted on the cage top and connected to a laptop computer. A nitrile rubber glove (Ansell Protective Products, Coshoton, Ohio, part number: 37-155) was cut on the back side of the glove to create a window (6 cm×5 cm) (FIG. 1A). A piece of magnetic frame (slightly larger than the dimension of the window) was glued onto the cut window which was used as a base for stacking more magnetic window frames (FIG. 1A; further explained below). One piece of test compound-treated polyester netting (Shason Textile Inc., part number: WS-B532-111, white; slightly larger than the dimension of the window) was placed on this fixed magnetic frame, which was ˜3.0 mm above the glove. The second piece of the netting was untreated and placed ˜6.0 mm above the treated net using a stack of four magnetic frames. The stacked magnetic frames were further secured with a binder clip. The stacking creates sufficient space between the treated net and the untreated net so that mosquitoes that land on the open window were not able to contact treated net, or to contact and pierce skin of a hand in the glove. The hand makes no contact with the treated net.
The assay was run in a room with humidity between around 50% and temperature between 27° C. to 30° C. Twenty-four hours before an assay, four to nine days-old females (about 40, mated, non-blood fed) were transferred into a mosquito cage. The cage was kept in an incubator where mosquitoes were provided only with water in a cotton ball placed on the top of the cage. Immediately before the assay, one researcher treated pieces of netting with 500 μl test compound dissolved in acetone in a glass Petri dish in an adjacent room. Acetone served a control. After letting acetone evaporate (˜7 min), the researcher assembled and put on a modified glove. In the meantime, a second researcher or a lab assistant transferred the prepared cage from the incubator to a bench in the assay room. Both personnel avoided use of any hand lotions and cosmetic products before an assay and wore white lab coats and gloves during the assay. The hand with the modified glove was introduced into the cage to initiate the assay. Mosquitoes landing on the test window was recorded by the digital camera for five minutes. The number of mosquitoes landing during the second to fifth minutes was counted and recorded. For each cage, solvent (acetone) control was tested first and then followed with a treatment. Data from any cage that gave a low landing number in a control trial were discarded. The time interval of assays between control and treatment was at least 1.5 hours, allowing the mosquitoes to fully recover and residual vapors from experiments to be ventilated out of the room. Percentage repellency was determined for each cage using the following equation:
Percentage repellency=[1−(cumulative number of mosquitoes landed on the window of treatment/cumulative number of mosquitoes landed on the window of solvent treatment)]×100).
The spatial repellency of pyrethrum was examined using a hand-in-cage assay (Ogoma et al. PLoS neglected tropical diseases 11, e0005455 (2017)). In this behavioral assay, mosquitoes were attracted to a human hand in a modified glove (FIG. 1A) with a screened window on the back of the glove. The mosquitoes landed on a piece of control mesh secured on the top of the window. Between the control mesh and the hand is another mesh treated with a test compound, with which mosquitoes cannot make direct contact (FIG. 1A).

[1] = test system: sbt-1 sensilla (sbt-1A and sbt-1B neurons); test: Single sensillum recording (SSR) of antennal sbt-1 sensilla; format: cell-based, Aedes aegypti; settings: for response of sbt-1A neurons in AaOr31−/− mosquitoes: AaOr31 knockout vs ROCK, 10^−2 dilution, FIG. 3A; for response of sbt-1A neuron / response of sbt-1B neuron: wild-type ROCK; for response of sbt-1A neuron: pyrethrum and EBF at 10^−2 dilution; for response of sbt-1B neurons in AaOr31−/− mosquitoes: AaOr31 knockout, specificity control; for response of sbt-1B neuron: pyrethrum at 10^−2
Experimental: (§1) Single sensilla recording was conducted as described in Liu et al. J Insect Physiol 59, 1169-1177 (2013). Female mosquitoes 4 days after eclosion were anaesthetized (2-3 min on ice) and mounted on a microscope slide (76×26 mm). An antenna was fixed using a double-sided tape to a cover slip resting on a small ball of dental wax to facilitate manipulation. The cover slip was placed at an appropriate angle to the mosquito head. Once mounted, the specimen was placed under a microscope (Nikon SMA645, Japan) and the antenna viewed at a high magnification (1000×). Two tungsten microelectrodes were sharpened in 10% KNO2 at 2-10 V. The reference electrode, which was connected to ground, was inserted into the compound eye of the mosquito and the other was connected to the preamplifier (10×, Syntech, Kirchzarten, Germany) and inserted into the shaft of an olfactory sensillum to complete the electrical circuit to extracellularly record olfactory receptor neuron potentials (Den Otter et al., Journal of Insect Physiology 26, 465-472 (1980)). Controlled manipulation of the electrodes was performed using a micromanipulator (Burleigh PCS-6000, CA). The preamplifier was connected to an analog-to-digital signal converter (IDAC-4, Syntech, Germany), which in turn was connected to a computer for signal recording and visualization. The activity of co-located olfactory receptor neurons in each sensillum was assessed based on the differences in spike amplitude. The large spike amplitude was designated as cell A and the olfactory receptor neuron with the small spike amplitude was designated cell B (Ghaninia et al. Eur J Neurosci 26, 1611-1623 (2007)). Signals were recorded for 10 seconds starting 1 second before stimulation, and the action potentials were counted off-line over a 500-ms period before and after stimulation. The spontaneous firing rates observed in the preceding 500 milliseconds (ms) were subtracted from the total spike rates observed during the 500-ms stimulation, and counts were recorded in units of spikes/second.
(§2) Eighteen compounds besides pyrethrum from different chemical classes were selected for functional classification of olfactory sensilla with various morphological shapes (Extended Data FIG. 2). Each compound was diluted in dimethyl sulfoxide (DMSO) to a stock solution with a concentration of 100 μg/μl. Subsequently, a series of 10-fold dilutions were made from each of the stock solutions for each compound tested. For each dilution, a 10 μl portion was dispersed onto a filter paper strip (4×10 mm), which was then inserted into a Pasteur pipette to create the stimulus cartridge. A sample containing the solvent alone served as control. The airflow across the antennae was maintained constant at a 20 ml/second throughout the experiment. Purified and humidified air was delivered to the preparation through a glass tube (10-mm inner diameter) perforated by a small hole 10 cm away from the end of the tube, into which the tip of the Pasteur pipette could be inserted. The stimulus was delivered to the sensilla by inserting the tip of the stimulus cartridge into this hole and diverting a portion of the air stream (0.5 l/min) to flow through the stimulus cartridge for 500 ms using a stimulus controller (Syntech, Germany). The distance between the end of the glass tube and the antennae was ≤1 cm. The number of spikes/second was obtained by averaging the results for each sensillum/compound combination.
(§3) To identify which mosquito olfactory receptor neuron(s) responds to pyrethrum, single sensillum recordings (SSR) were performed of Ae. aegypti antennal olfactory sensilla in response to a panel of odorants (FIG. 2C-2L), most of which are plant-derived mosquito repellents, such as pyrethrum, (±)-citronellal, geranyl acetate and (−)-borneol. Three responsive sst sensilla were identified, sst1-3, and six responsive sbt sensilla, sbt1-6, based on their response profiles to the odorants in the panel (FIG. 2B, 2D-2L).

[2] = test system: sst-1 sensilla (sst-1A and sst-1B neurons); test: Single sensillum recording (SSR) of antennal sst-1 sensilla; format: cell-based, Aedes aegypti; settings: for response of sst-1A neuron: wild-type ROCK, pyrethrum at 10^−2; for response of sst-1A neurons: ROCK, 10^−1 dilution, FIG. 4A
Experimental: as §1, §2, §3

AgOr31 = test: SSR of Drosophila ab3A empty neurons expressing AgOr31; format: cell-based, Anopheles gambiae; settings: 10^−2 dilution
From the text: The method of Carey et al. (Nature 464, 66-71 (2010)) was used for heterologous expression of AgORs in the ab3 empty neurons. The Gal4 line (w; Cyo/Δhalo; Or22a-Gal4) was kindly provided by John Carlson (Yale Univ.), and 50 UAS-AgOr lines were obtained from the Bloomington Drosophila stock center.
Having identified sbt-1 and sst-1 as primary olfactory receptor neurons that are responsive to pyrethrum, experiments were designed to identify the specific odorant receptors (Ors) that are involved in these responses. An indexed library of An. gambiae Ors (AgOrs) (Carey et al., Nature 464, 66-71 (2010)) was used. Each of the 50 AgOrs was expressed in the “ab3 empty neuron” system of Drosophila melanogaster, in which the endogenous odorant receptor gene, Or22a, in the ab3 sensillum was deleted (FIG. 2N-2O, FIG. 3A).
Single sensillum recordings (SSR) were then examined from the resulting chimera ab3 sensillum that expressed the individual AgOrs in the D. melanogaster antenna when these flies were exposed to the same panel of odorants used in the analysis of Ae. aegypti sensilla. […] The odorant response profile of the sbt-1A neuron matches remarkably well with that of AgOr31 (FIGS. 2C, 2O).

[3] = 10^−3 dilution, Orlando (wild-type), FIG. 4B

SMILES: CC(C)=CCCC(C)CC=O (racemic) [(±)-citronellal]
- repellency in AaOr31−/− mosquitoes compared to wild-type mosquitoes (Ae. aegypti mosquitoes; 10^−2 dilution, FIG. 3B): significantly reduced
- response of sbt-1A neurons in AaOr31−/− mosquitoes [1]: completely abolished
- response of sbt-1A neuron [1]: strong excitatory responses
- response of sst-1A neuron [2]: activated

SMILES: C=CC(=C)CC/C=C(\C)CCC=C(C)C [(E)-β-farnesene]
- repellency alone (Ae. aegypti mosquitoes; 4 ppm and 10 ppm, ROCK or AaOr31−/− mosquitoes, FIG. 4H): did not elicit repellency
- repellency in AaOr31−/− mosquitoes compared to wild-type mosquitoes (Ae. aegypti mosquitoes; 10^−2 dilution, FIG. 3B): significantly reduced
- spatial repellency (Ae. aegypti mosquitoes; 10^−2 dilution, ROCK, FIG. 3B): elicited spatial repellency
- repellency alone (Ae. aegypti mosquitoes; 1000 ppm or lower concentrations, FIG. 4H): no repellency
- repellency enhancement by (E)-β-farnesene in AaOr31−/− mosquitoes (Ae. aegypti mosquitoes; EBF 4 ppm with P-II 1000 ppm, FIG. 4D): abolished
- repellency alone (Ae. aegypti mosquitoes; at 4 ppm or below): did not exhibit repellency
- response of sbt-1A neurons in AaOr31−/− mosquitoes [1]: completely abolished
- response of sbt-1A neuron [1]: activated
- activation of AgOr31 (AgOr31): activated

SMILES: CC12CCC(CC1=O)C2(C)C (centres unmarked) [camphor]
- response of sst-1A neuron [2]: activated

SMILES: CCCCC/C=C\C/C=C\CCCCCCCC(=O)OCC [ethyl linoleate]
- response of sbt-1A neuron [1]: None
- activation of AgOr31 (AgOr31): None

SMILES: CCCCCCCCCCCCCCCC(=O)OCC [ethyl palmitate]
- response of sbt-1A neuron [1]: None
- activation of AgOr31 (AgOr31): None

SMILES: CC12CCC(CC1)C(C)(C)O2 [eucalyptol]
- response of sst-1A neuron [2]: activated

SMILES: CC(=O)OC/C=C(\C)CCC=C(C)C [geranyl acetate]
- repellency in AaOr31−/− mosquitoes compared to wild-type mosquitoes (Ae. aegypti mosquitoes; 10^−2 dilution, FIG. 3B): significantly reduced
- response of sbt-1A neurons in AaOr31−/− mosquitoes [1]: completely abolished
- response of sbt-1A neuron [1]: strong excitatory responses

SMILES: c1ccc2[nH]ccc2c1 [indole]
- response of sbt-1B neurons in AaOr31−/− mosquitoes [1]: remained intact
- response of sbt-1B neuron [1]: highly sensitive

SMILES: C=C/C=C\CC1=C(C)[C@@H](OC(=O)[C@@H]2[C@@H](/C=C(\C)C(=O)OC)C2(C)C)CC1=O [pyrethrin II]
- repellency in orco−/− mosquitoes compared to Orlando (Ae. aegypti mosquitoes; 10^−3 dilution, FIG. 4B): significantly reduced
- spatial repellency (Ae. aegypti mosquitoes; [3]): elicited spatial repellency
- effect of (E)-β-farnesene on repellency of the compound (Ae. aegypti mosquitoes; ROCK, FIG. 4D): synergized
- repellency in pyrethrum/pyrethroid resistant KDR:ROCK mosquitoes compared to ROCK (Ae. aegypti mosquitoes): reduced
- response of sst-1A neurons [2]: activated

SMILES: C=C/C=C\CC1=C(C)[C@@H](OC(=O)[C@@H]2[C@@H](C=C(C)C)C2(C)C)CC1=O [pyrethrin I]
- repellency alone (Ae. aegypti mosquitoes; 1 ppm, ROCK, FIG. 4E): did not elicit repellency
- repellency in orco−/− mosquitoes compared to Orlando (Ae. aegypti mosquitoes; 10^−3 dilution, FIG. 4B): significantly reduced
- spatial repellency (Ae. aegypti mosquitoes; [3]): elicited spatial repellency
- effect of (E)-β-farnesene on repellency of the compound (Ae. aegypti mosquitoes; ROCK, FIG. 4D): synergized
- repellency in pyrethrum/pyrethroid resistant KDR:ROCK mosquitoes compared to ROCK (Ae. aegypti mosquitoes): reduced
- synergism with (E)-β-farnesene in repellency (Ae. aegypti mosquitoes; pyrethrin I 1 ppm, EBF 10 ppm, ROCK, FIG. 4E): still evident
- response of sst-1A neurons [2]: activated

SMILES: Cc1ccccc1 [toluene]
- response of sbt-1B neurons in AaOr31−/− mosquitoes [1]: remained intact
- response of sbt-1B neuron [1]: highly sensitive
